The values below come from article PMC5112673, “A novel pyruvate kinase and its application in lactic acid production under oxygen deprivation in Corynebacterium glutamicum” (BMC Biotechnology, 2016).

The assay has as its system T1, Pyk2.
T1 construct: full length, pET-28a N-terminal His-tag (removable by thrombin; tagged and cut similarly active), E. coli BL21(DE3), subunit 67,572 Da, homohexamer 430,881 Da by gel filtration
The assay can be described thus: coupled L-lactate dehydrogenase / NADH assay, […] nm, allosteric sigmoidal fit. It is filed as biochemical, Corynebacterium glutamicum. To be noted: 5 mM MnSO4, 100 mM KCl, 100 mM Tris-HCl pH 7.4, 25°C, no effector, read-out: S 0.5.

Read-outs that look alike come from different tables or passages of the source.

`Nc1ncnc2c1ncn2[C@@H]1O[C@H](COP(=O)(O)OP(=O)(O)O)[C@@H](O)[C@H]1O` [ADP]: the Km (5 mM PEP) was found to be 0.33 ± 0.03 mM.
As for `C=C(OP(=O)(O)O)C(=O)O` [PEP], the Km (2 mM ADP) is 4.58 ± 0.74 mM.
